Measured values reported in publication PMC4199632, “Exploring the Anti-Cancer Activity of Novel Thiosemicarbazones Generated through the Combination of Retro-Fragments: Dissection of Critical Structure-Activity Relationships” (PLoS ONE, 2014).

Legend:
[1] = Ascorbate oxidation assay (iron complexes); format: biochemical; details: iron complex; for Ascorbate oxidation (% of the control): FeIII 10 µM, ascorbate 100 µM
Method: The ability of the iron complexes of the novel ligands to mediate the oxidation of the physiological substrate, ascorbate, was examined using established methods, [18], [22], [52], [53]. Ascorbic acid (100 µM) was prepared immediately prior to each experiment and was incubated in the presence of Fe^III (10 µM; as FeCl3), the chelator (1–60 µM) and a 50-fold molar excess of citrate (500 µM). The absorbance at 265 nm was measured after 10 and 40 min and the difference in absorbance at these time points was calculated. The results of these experiments were expressed as iron-binding equivalents (IBE) due to the different denticity of the chelators examined. The chelators, Dp44mT, DFO and ethylenediaminetetraacetic acid (EDTA) were used as controls as the ability of their iron complexes to oxidize ascorbate has been extensively characterized, [15], [52], [53].
The ability of the iron complexes of the novel TSCs to catalyze the oxidation of the physiological substrate, ascorbate, was important to assess as redox cycling may play a critical role in their anti-proliferative activity, [15], [18], [52], [53]. Thus, the oxidation of ascorbate mediated by the iron complexes of series 1–6 were examined in comparison to the iron complexes of the control compounds, DFO, EDTA and Dp44mT, as the ability of the latter to oxidize ascorbate is well characterized, [15], [52], [53], [68]. The results were expressed as a percentage of the control (no chelator) at iron-binding equivalents (IBEs) of 0.1 (excess “free” iron), 1 (iron-chelator complexes with a fully filled coordination sphere), or 3 (excess free chelator), due to the different denticity of the chelators examined (Fig. 10).
Figure 10 Effect of the iron complexes of (A) series 1, (B) series 2, (C) series 3, (D) series 4, (E) series 5 and (F) series 6 chelators, relative to DFO, Dp44mT and EDTA, on ascorbate oxidation. Chelators at iron-binding equivalent (IBE) ratios of 0.1, 1, and 3 were incubated in the presence of Fe^III (10 µM) and ascorbate (100 µM). The UV-Vis absorbance at 265 nm was recorded after 10 and 40 min, and the difference between the time points was calculated. Results are mean ±SD (3 experiments).

[2] = tested on: HCT116 p53+/+, HCT116 p53−/−, Raji, HeLa, SK-N-MC and NHDF cells; assay: Proliferation assay, ranges stated over several cell-types; format: cell-based, human; details: for IC50: Homo sapiens, HCT-116, range over HCT116 p53+/+ and p53−/− cells and over the compounds named, read-out: IC50 range in HCT116 cells; for Therapeutic index, NHDF relative to HCT116 cells: range over HCT116 p53+/+ and p53−/− and over the compounds named
Method: (§1) The human cancer cell types (neuroepithelioma (SK-N-MC), colon cancer (HCT116 with wild-type p53 (p53^+/+)), Burkitt's lymphoma (Raji) and cervical carcinoma (HeLa)) cells and normal human dermal fibroblasts (NHDF) were obtained from the American Type Culture Collection (ATCC, Manassas, VA, USA). HCT116 null p53 (p53^−/−) cells were obtained from the Maria Sklodowska-Curie Memorial Cancer Center and Institute of Oncology, Poland.
(§2) The SK-N-MC cells were cultured in minimum essential medium (MEM; Life Technologies, Grand Island, New York, USA) containing 10% (v/v) fetal bovine serum (FBS; Life Technologies), 1 mM sodium pyruvate (Life Technologies), 1% (v/v) non-essential amino acids (Life Technologies), 2 mM L-glutamine (Life Technologies), 100 U/mL penicillin (Life Technologies), 100 µg/mL streptomycin (Life Technologies) and 0.28 µg/mL fungizone (Bristol Myers Squibb Pharmaceuticals, Montreal, Canada). The HCT116 and NHDF cells were grown in Dulbecco's modified Eagle's medium (DMEM; Sigma-Aldrich) supplemented with 12% (v/v) heat-inactivated FBS (HCT116; Life Technologies) or 15% (v/v) FBS (NHDF; Life Technologies), 100 µg/mL of gentamicin (Polfa Warszawa S.A., Warsaw, Poland), 100 µg/mL of streptomycin (Polfa) and 100 U/mL of penicillin (Polfa). The Raji and HeLa cells were cultured in Roswell Park Memorial Institute medium (RPMI-1640; Sigma-Aldrich) with the addition of 10% (v/v) heat-inactivated FBS (Life Technologies) and the supplements described for SK-N-MC cells above. All cell lines were cultured under standard conditions at 37°C in a humidified atmosphere at 5% CO2 and were subcultured every 3–4 days as required.
(§3) The cells were seeded in 96-well plates (SK-N-MC: 1.5×10^4 cells/well; HeLa: 5.0×10^3 cells/well; Raji: 3.0×10^3 cells/well; HCT116: 3.5×10^3 cells/well; NHDF: 3.0×10^3 cells/well) 24 h prior to the addition of the novel compounds. The assays were performed using a 72 h (SK-N-MC, Raji, HeLa) or 96 h (HCT 116, NHDF) incubation period with the agents at 37°C. […] Additionally, DFO and Dp44mT were included as positive controls in all experiments as their activity is well characterized, [42], [50].
(§4) Chelator stock solutions were prepared in DMSO and diluted in media so that the final [DMSO] <0.05%. The results were expressed as a percentage of the control and the resulting IC50 values were calculated using GraphPad Prism 5 (GraphPad Software, Inc., La Jolla, CA, USA). The IC50 was defined as the concentration necessary to reduce the absorbance to 50% of the untreated control. Each individual compound was tested in triplicate in a single experiment, with each experiment being repeated three times. After incubation of HCT 116 and NHDF cells with the tested compounds, 20 µL of the CellTiter 96 Aqueous One Solution - MTS (Promega, Madison, WI, USA) solution was added to each well (with 100 µL of DMEM without phenol red) and incubated for 1 h/37°C. The optical density of the samples was analyzed at 490 nm.
(§5) MTT (3-[4,5-dimethylthiazol-2-yl]-2,5-diphenyltetrazolium bromide) was used to evaluate the anti-proliferative effects of the chelators in SK-N-MC and Raji cells. Following incubation with the investigated compounds, 10 µL of MTT (5 mg/mL in PBS; Sigma-Aldrich) was added to each well. After a 2 h (SK-N-MC) or 4 h (Raji) incubation, the plates were centrifuged, and the cells were lysed with 100 µL of 10% SDS-50% isobutanol in 0.01 M HCl (SK-N-MC) or DMSO (Raji). The absorbance was measured at 570 nm. The anti-proliferative effects of these novel agents on HeLa cells were estimated using crystal violet staining (0.5% crystal violet solution for 10 min). Finally, the wells were rinsed with water and the cells were lysed with 2% SDS. The optical density of the samples was analyzed at 595 nm.

[3] = tested on: normal human dermal fibroblast (NHDF) cells; assay: Proliferation assay (MTS, 96 h), normal mortal cells; format: cell-based; details: 96 h incubation, mean ±SD (3 experiments)
Method: as §1, §2, §3, §4

[4] = tested on: HeLa cervical carcinoma cells; assay: Proliferation assay (crystal violet, 72 h); format: cell-based; details: Homo sapiens, 72 h incubation, mean ±SD (3 experiments)
Method: as §1, §2, §3, §4, §5

[5] = tested on: Raji Burkitt's lymphoma cells; assay: Proliferation assay (MTT, 72 h); format: cell-based; details: Homo sapiens, 72 h incubation, mean ±SD (3 experiments)
Method: as §1, §2, §3, §4, §5

[6] = tested on: SK-N-MC neuroepithelioma cells; assay: Proliferation assay (MTT, 72 h); format: cell-based; details: Homo sapiens, 72 h incubation, mean ±SD (3 experiments)
Method: as §1, §2, §3, §4, §5

[7] = tested on: HCT116 p53−/− colon cancer cells; assay: Proliferation assay (MTS, 96 h); format: cell-based, human; details: for IC50: 96 h incubation, MTS, mean ±SD (3 experiments); for Therapeutic index NHDF vs. HCT116 p53−/−: NHDF cell IC50 divided by HCT116 p53−/− IC50
Method: as §1, §2, §3, §4

[8] = tested on: HCT116 p53+/+ colon cancer cells; assay: Proliferation assay (MTS, 96 h); format: cell-based, human; details: for IC50: Homo sapiens, HCT-116, 96 h incubation, MTS, mean ±SD (3 experiments); for Therapeutic index NHDF vs. HCT116 p53+/+: NHDF cell IC50 divided by HCT116 p53+/+ IC50
Method: as §1, §2, §3, §4

Row | SMILES | Ascorbate oxidation (% of the control) ([1]; IBE 3) | IC50 [2] | Therapeutic index, NHDF relative to HCT116 cells [2] | IC50 ([3]; Homo sapiens, NHDF, 96 h) | IC50 [4] | IC50 [5] | IC50 [6] | IC50 ([7]; Homo sapiens, HCT-116, 96 h) | Therapeutic index NHDF vs. HCT116 p53−/− [7] | IC50 [8] | Therapeutic index NHDF vs. HCT116 p53+/+ [8] | IC50 [3] | Ascorbate oxidation compared with controls ([1]; IBE 3) | Decrease in anti-proliferative efficacy, HCT116 p53+/+ vs HCT116 p53−/− ([2]; comparison of IC50 in HCT116 p53+/+ and p53−/− cells) | IC50 [7] | Ascorbate oxidation (% of the control) ([1]; IBE 0.1) | Ascorbate oxidation (% of the control) ([1]; IBE 1)
1 | S=C(NN=C(c1ccccn1)c1ccccn1)N1CCN(c2ccccc2)CC1 [1b] | 200–265% | 0.8 to 90 nM | 2 | 0.0017 ± 0.0007 µM | 570 ± 160 nM | 0.3 ± 0.03 nM | 50 ± 10 nM | 0.0008 ± 0.0001 µM | 2 | 0.8 ± 0.1 nM | 2 | – | – | – | – | – | –
2 | S=C(NN=C(c1ccccn1)c1ccccn1)N1CCN(c2ccccn2)CC1 [1d, Z-N′-(di(pyridin-2-yl)methylene)-4-(pyridin-2-yl)piperazine-1-carbothiohydrazide] | 200–265% | 2 to 17 nM | 18–2650 | 0.16 to 10.6 µM | 30 ± 20 nM | 1.3 ± 0.1 nM | 20 ± 10 nM | 0.009 ± 0.001 µM | 18 | 2 nM | 80 | 0.16 ± 0.04 µM | – | – | – | – | –
3 | S=C(N/N=C/c1ccc2ccccc2n1)N1CCN(c2cnccn2)CC1 [2e] | 200–265% | – | – | 9.44 ± 3.84 µM | 1560 ± 440 nM | 290 ± 110 nM | 480 ± 100 nM | 0.48 ± 0.15 µM | – | 88 ± 44 nM | – | – | – | – | – | – | –
4 | CCN1CCN(C(=S)N/N=C/c2ccc3cccc(O)c3n2)CC1 [3a] | – | – | – | 15.8 ± 4.6 µM | 3410 ± 1460 nM | 200 ± 20 nM | 820 ± 610 nM | 8.83 ± 0.63 µM | – | 9250 ± 1420 nM | – | – | increased levels of ascorbate oxidation | – | – | – | –
5 | Oc1cccc2ccc(/C=N/NC(=S)N3CCOCC3)nc12 [3c] | – | 2 to 17 nM | 18–2650 | – | 180 ± 70 nM | 20 ± 10 nM | > 6250 nM | 0.017 ± 0.006 µM | 624 | 4 ± 2 nM | 2650 | – | – | – | – | – | –
6 | Oc1cccc2ccc(/C=N/NC(=S)N3CCN(c4cnccn4)CC3)nc12 [3e] | – | – | – | 12.1 ± 3.6 µM | 2390 ± 20 nM | 40 ± 20 nM | > 6250 nM | 5 µM | – | 50 ± 30 nM | – | – | – | 100 fold | 5.01 ± 2.55 µM | – | –
7 | S=C(N/N=C/c1cnc2ccccc2n1)N1CCN(c2ccccn2)CC1 [5d] | – | – | – | 7.13 ± 0.82 µM | 1780 ± 770 nM | 490 ± 90 nM | 2330 ± 90 nM | 9.41 ± 1.04 µM | – | 9400 ± 800 nM | – | – | decreased ascorbate oxidation relative to the control | – | – | – | –
8 | S=C(N/N=C/c1cnc2ccccc2n1)N1CCN(c2cnccn2)CC1 [5e] | – | – | – | 15.8 ± 5.1 µM | 3770 ± 1710 nM | 270 ± 10 nM | 1980 ± 680 nM | 8.49 ± 3.05 µM | – | 5730 ± 750 nM | – | – | increased levels of ascorbate oxidation | – | – | – | –
9 | CCN1CCN(C(=S)N/N=C/c2ccccc2O)CC1 [6a] | – | – | – | > 25 µM | 22100 ± 5400 nM | 10200 ± 6600 nM | > 6250 nM | > 25 µM | – | > 25000 nM | – | – | decreased ascorbate oxidation relative to the control | – | – | – | –
10 | Oc1ccccc1/C=N/NC(=S)N1CCN(c2ccccn2)CC1 [6d] | – | – | – | 18.4 ± 1.9 µM | 16400 ± 4500 nM | 2600 ± 330 nM | 5420 ± 640 nM | 10.6 ± 1.2 µM | – | 9700 ± 2500 nM | – | – | decreased ascorbate oxidation relative to the control | – | – | – | –
11 | O=C(O)CN(CCN(CC(=O)O)CC(=O)O)CC(=O)O [EDTA, ethylenediaminetetraacetic acid, reference compound] | 936% | – | – | – | – | – | – | – | – | – | – | – | – | – | – | 208% | 449%
